Measurements reported in patent US12630498B2 (Genzyme Corporation, priority 2019, dated 2026).

Experiments:
[1] = molecular target: T1, human Cystic Fibrosis Transmembrane Conductance Regulator (CFTR) harboring the ΔF508 mutation (Homo sapiens, UniProt P13569, DEL508-508); assay: H441 cell ΔF508-CFTR-HRP cell surface assay (Emax and EC50); format: cell-based; conditions: for Emax: NCI-H441, NA = Not active
T1 construct: expressed in transfected cells; host or cells: H441 carcinoma line (G418-selected)
In short: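 H441 and 41o- bronchial epithelial cells expressing ΔF508-CFTR with an extracellular-loop-4 HRP tag were treated with a 15-point compound series (24.5–0.001 μM) for two nights, H441 at 27° C, 41o- at 37° C with 0.0005 mg/ml doxycycline. Surface HRP luminescence read; % of maximum VX809 signal and EC50 derived.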

[2] = molecular target: T2, CFTR-mediated transepithelial chloride transport in primary human bronchial epithelial cells from a ΔF508 homozygous CF donor (Homo sapiens, UniProt P13569, DEL508-508); assay: TECC24 recording of CFTR-mediated transepithelial chloride transport in CF-HBE cells (AUC fold over DMSO); format: cell-based; conditions: test agent 10 μM, 48 hours incubation, AUC of forskolin-stimulated IEQ relative to DMSO
T2 construct: Primary human bronchial epithelial cells from a ΔF508 homozygous CF donor; host or cells: primary CF-HBE cells, ΔF508 homozygous donor
Experimental: Example 316: TECC24 AUC Fold Over DMSO @ 10 uM
The effects of a test agent on CFTR-mediated transepithelial chloride transport was measured using TECC24 recording analysis. Test agents were solubilized in DMSO. Solubilized test agents were mixed with incubation medium containing DMEM/F12, Ultroser G (2%; Crescent Chemical, catalog #67042), Hyclone Fetal Clone II (2%; GE Healthcare, catalog #SH30066.02), bovine brain extract (0.25%; Lonza, catalog #CC-4098), insulin (2.5 μg/mL), IL-13 (10 ng/mL), hydrocortisone (20 nM), transferrin (2.5 μg/mL), triiodothyronine (500 nM), ethanolamine (250 nM), epinephrine (1.5 μM), phosphoethanolamine (250 nM), and retinoic acid (10 nM). Primary human bronchial epithelial cells from a ΔF508 homozygous CF donor (CF-HBE cells; from University of North Carolina Cystic Fibrosis Tissue Procurement Center), grown on Transwell HTS 24-well cell culture inserts (Costar, catalog #3378), were exposed to test agents or controls dissolved in incubation medium. The CF-HBE cells were cultured at 36.5° C. for 48 hours before TECC24 recordings were performed in the presence or absence of test agent, a positive control or vehicle (DMSO).
Following incubation, the transwell cell culture inserts containing the test agent or control-treated CF-HBE cells were loaded onto a TECC24 apparatus (TECC v7 or MTECC v2; EP Design) to record the transepithelial voltage (VT) and resistance (TEER) using 4 AgCl electrodes per well configured in current-clamp mode. The apical and basolateral bath solutions both contained (in mM) 140 NaCl, 5 KCl, 2 CaCl2), 1 MgCl2, 10 Hepes, and 10 glucose (adjusted to pH 7.4 with NaOH). To inhibit basal Na+ absorption, the ENaC inhibitor benzamil (10 μM) was added to the bath. Then, the adenylate cyclase activator, forskolin (10 μM), was added to the bath to activate CFTR. The forskolin-stimulated Cl-transport was halted by addition of CFTR inhibitor-172 (20 μM) to the bath at the end of the experiment to confirm specificity. VT and TEER recordings were digitally acquired at routine intervals using TECC or MTECC software (EP Design). VT and TEER were transformed into equivalent transepithelial Cl-current (IEQ), and the Area Under the Curve (AUC) of the IEQ time course between forskolin and CFTR inhibitor-172 addition was generated using Excel (Microsoft). Efficacy is expressed as the ratio of the test agent AUC divided by vehicle AUC. EC50s based on AUC are generated using the non-linear regression log(agonist) vs. response function in Prism software (GraphPad) with Hill Slope fixed=1.
If a test agent increased the AUC of the forskolin-stimulated IEQ relative to vehicle in CF-HBE cells, and this increase was inhibited by CFTR inhibitor-172, then the test agent was considered a CFTR corrector.

T1 sequence (P13569 with tags, fused parts or gaps DEL508-508): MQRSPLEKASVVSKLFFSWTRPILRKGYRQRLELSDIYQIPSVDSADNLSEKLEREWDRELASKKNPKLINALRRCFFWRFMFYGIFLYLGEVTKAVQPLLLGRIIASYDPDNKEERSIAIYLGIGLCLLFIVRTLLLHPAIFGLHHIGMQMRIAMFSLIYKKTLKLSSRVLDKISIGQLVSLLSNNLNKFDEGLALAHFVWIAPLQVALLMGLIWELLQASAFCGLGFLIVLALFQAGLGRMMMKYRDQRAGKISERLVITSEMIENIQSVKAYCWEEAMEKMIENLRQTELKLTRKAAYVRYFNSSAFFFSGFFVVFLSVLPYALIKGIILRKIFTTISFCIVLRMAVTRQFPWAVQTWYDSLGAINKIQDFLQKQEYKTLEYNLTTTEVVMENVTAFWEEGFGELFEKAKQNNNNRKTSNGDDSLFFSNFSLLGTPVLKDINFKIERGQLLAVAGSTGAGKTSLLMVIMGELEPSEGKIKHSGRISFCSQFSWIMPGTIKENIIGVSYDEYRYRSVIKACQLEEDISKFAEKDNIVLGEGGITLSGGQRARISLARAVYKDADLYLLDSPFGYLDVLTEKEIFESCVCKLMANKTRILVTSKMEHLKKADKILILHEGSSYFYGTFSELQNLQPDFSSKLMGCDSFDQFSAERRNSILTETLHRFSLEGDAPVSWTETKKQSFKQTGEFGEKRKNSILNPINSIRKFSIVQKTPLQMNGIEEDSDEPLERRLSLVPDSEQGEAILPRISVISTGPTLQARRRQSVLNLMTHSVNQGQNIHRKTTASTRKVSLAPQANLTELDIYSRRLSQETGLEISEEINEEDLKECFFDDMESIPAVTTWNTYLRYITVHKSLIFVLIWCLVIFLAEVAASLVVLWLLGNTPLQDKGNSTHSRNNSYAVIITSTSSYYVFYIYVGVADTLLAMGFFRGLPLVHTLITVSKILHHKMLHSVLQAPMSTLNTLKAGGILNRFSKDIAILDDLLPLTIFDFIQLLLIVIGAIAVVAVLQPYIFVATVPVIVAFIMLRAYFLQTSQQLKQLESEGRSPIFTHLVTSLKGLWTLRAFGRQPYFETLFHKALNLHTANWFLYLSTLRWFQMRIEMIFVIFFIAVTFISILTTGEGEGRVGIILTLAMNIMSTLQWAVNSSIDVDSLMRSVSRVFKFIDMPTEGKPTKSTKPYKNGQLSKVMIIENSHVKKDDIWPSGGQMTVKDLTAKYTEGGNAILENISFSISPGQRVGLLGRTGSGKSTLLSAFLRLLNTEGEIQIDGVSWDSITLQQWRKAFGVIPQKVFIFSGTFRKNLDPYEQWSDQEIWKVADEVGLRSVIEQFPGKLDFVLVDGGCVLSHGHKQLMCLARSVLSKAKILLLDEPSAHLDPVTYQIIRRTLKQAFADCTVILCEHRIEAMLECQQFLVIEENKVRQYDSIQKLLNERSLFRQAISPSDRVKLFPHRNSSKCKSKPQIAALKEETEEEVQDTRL
T2 sequence (P13569 with tags, fused parts or gaps DEL508-508): as above

Row | EC50 [1] [µM] | Emax [1] [%] | TECC24 AUC fold over DMSO @10 μM [2] | SMILES
1 | 0.5 | 173 | C (“C” refers to AUC @10 uM <4) | Cc1ccc2ccc(C(=O)N[C@@H](C(=O)O)C(C)(C)C)c(OCc3ccc(C(F)(F)F)cc3)c2c1 [Example 284, (R)-3,3-dimethyl-2-(7-methyl-1-((4-(trifluoromethyl)benzyl)oxy)-2-naphthamido) butanoic Acid]
2 | 0.2 | 313 | A (“A” refers to AUC @10 uM >6) | CCC(C)(C)[C@H](NC(=O)c1ccc2ccc(Cl)cc2c1OCc1ccc(C(F)(F)F)cc1)C(=O)O [Example 283, (S)-2-(7-chloro-1-((4-(trifluoromethyl)benzyl)oxy)-2-naphthamido)-3,3-dimethylpentanoic Acid]
3 | 0.1 | 270 | A (“A” refers to AUC @10 uM >6) | CCC(C)(C)[C@H](NC(=O)c1ccc2ccc(C(F)F)cc2c1OCc1ccc(OC(F)(F)F)cc1)C(=O)O [Example 250, (2S)-2-[[7-(difluoromethyl)-1-[[4-(trifluoromethoxy)phenyl]methoxy]naphthalene-2-carbonyl]amino]-3,3-dimethyl-pentanoic Acid]
4 | 0.3 | 117 | C (“C” refers to AUC @10 uM <4) | CC(C)(S[C@@H]1C[C@@H]2CC[C@H]1C2)[C@H](NC(=O)c1ccc2ccccc2c1OCc1ccc(SC(F)(F)F)cc1)C(=O)O [Example 174, (R)-3-(((1S,2R,4R)-bicyclo[2.2.1]heptan-2-yl)thio)-3-methyl-2-(1-((4-((trifluoromethyl)thio)benzyl)oxy)-2-naphthamido)butanoic Acid]
5 | 0.6 | 112 | C (“C” refers to AUC @10 uM <4) | CC(C)(SCC1CC1(F)F)[C@H](NC(=O)c1ccc2ccccc2c1OCc1ccc(SC(F)(F)F)cc1)C(=O)O (stereo partly drawn) [Example 164, (2R)-3-(((2,2-difluorocyclopropyl)methyl)thio)-3-methyl-2-(1-((4-((trifluoromethyl)thio)benzyl)oxy)-2-naphthamido)butanoic Acid]
6 | 0.1 | 103 | B (“B” refers to AUC @10 uM between 4-6) | O=C(N[C@H](C(=O)O)C12CCC(CC1)C2)c1ccc2ccccc2c1OCc1ccc(OC(F)(F)F)cc1 [Example 14, (S)-2-((1r,4S)-bicyclo[2.2.1]heptan-1-yl)-2-(1-((4-(trifluoromethoxy)benzyl)oxy)-2-naphthamido)acetic Acid]
7 | 0.7 | 112 | C (“C” refers to AUC @10 uM <4) | CC1(C(NC(=O)c2ccc3ccccc3c2OCc2ccc(S(F)(F)(F)(F)F)cc2)C(=O)O)CCCCC1 (stereo not drawn) [Example 48, 2-(1-methylcyclohexyl)-2-(1-((4-(pentafluoro-16-sulfanyl)benzyl)oxy)-2-naphthamido)acetic Acid]
8 | 3.4 | 112 | C (“C” refers to AUC @10 uM <4) | CC(C)(C)C[C@H](NC(=O)c1ccc2ccccc2c1OCc1nc2ccccc2s1)C(=O)O [Example 214, (S)-2-(1-(benzo[d]thiazol-2-ylmethoxy)-2-naphthamido)-4,4-dimethylpentanoic Acid]
9 | 0.8 | 112 | B (“B” refers to AUC @10 uM between 4-6) | C=CC(C)(C)C(NC(=O)c1ccc2ccccc2c1OCc1ccc(C(F)(F)F)cc1)C(=O)O (stereo not drawn) [Example 223, 3,3-dimethyl-2-[[1-[[4-(trifluoromethyl)phenyl]methoxy]naphthalene-2-carbonyl]amino]pent-4-enoic Acid]
10 | 0.5 | 158 | A (“A” refers to AUC @10 uM >6) | O=C(N[C@H](C(=O)O)C1CCCCC1)c1ccc2ccccc2c1OCc1ccc(C(F)(F)F)cc1 [Example 128, (S)-2-cyclohexyl-2-(1-((4-(trifluoromethyl)benzyl)oxy)-2-naphthamido)acetic Acid]
11 | 0.8 | 143 | C (“C” refers to AUC @10 uM <4) | O=C(NC(C(=O)O)C1(C(F)(F)F)CC1)c1ccc2ccc(Cl)cc2c1OCc1ccc(OC(F)(F)F)cc1 (stereo not drawn) [Example 238, 2-(7-chloro-1-((4-(trifluoromethoxy)benzyl)oxy)-2-naphthamido)-2-(1-(trifluoromethyl)cyclopropyl)acetic Acid]
12 | 0.9 | 117 | C (“C” refers to AUC @10 uM <4) | CC(C)(C)[C@H](NC(=O)c1ccc2ccccc2c1OCc1ccc(Cl)c(Cl)c1)C(=O)O [Example 47, (S)-2-(1-((3,4-dichlorobenzyl)oxy)-2-naphthamido)-3,3-dimethylbutanoic Acid]
13 | 0.7 | 174 | B (“B” refers to AUC @10 uM between 4-6) | CC1([C@H](NC(=O)c2ccc3c(F)cccc3c2OCc2ccc(C(F)(F)F)cc2)C(=O)O)CCCC1 [Example 303, (S)-2-(5-fluoro-1-((4-(trifluoromethyl)benzyl)oxy)-2-naphthamido)-2-(1-methylcyclopentyl)acetic Acid]
14 | 12 | 29.4 | C (“C” refers to AUC @10 uM <4) | O=C(N[C@H](C(=O)O)[C@H](O)c1ccccc1)c1ccc2ccccc2c1OCc1ccc(C(F)(F)F)cc1 [Example 129, (2S,3R)-3-hydroxy-3-phenyl-2-(1-((4-(trifluoromethyl)benzyl)oxy)-2-naphthamido)propanoic Acid]
15 | 1.3 | 140 | A (“A” refers to AUC @10 uM >6) | C#CC(C)(C)C(NC(=O)c1ccc2ccccc2c1OCc1ccc(OC(F)(F)F)cc1)C(=O)O (stereo not drawn) [Example 234, 3,3-dimethyl-2-[[1-[[4-(trifluoromethoxy)phenyl]methoxy]naphthalene-2-carbonyl]amino]pent-4-ynoic Acid]
16 | 0.6 | 86.4 | A (“A” refers to AUC @10 uM >6) | CC(C)(C)[C@H](NC(=O)c1ccc2ccccc2c1OCc1ccc(SC(F)(F)F)cc1)C(=O)O [Example 35, (S)-3,3-dimethyl-2-(1-((4-((trifluoromethyl)thio)benzyl)oxy)-2-naphthamido)butanoic Acid]
17 | 0.2 | 322 | A (“A” refers to AUC @10 uM >6) | CCC(C)(C)C(NC(=O)c1ccc2ccc(C)cc2c1OCc1ccc(C(F)(F)F)cc1)C(=O)O (stereo not drawn) [Example 275, 3,3-Dimethyl-2-{[7-methyl-1-(4-trifluoromethyl-benzyloxy)-naphthalene-2-carbonyl]-amino}-pentanoic Acid]
18 | 0.7 | 164 | B (“B” refers to AUC @10 uM between 4-6) | CC1(C(NC(=O)c2ccc3ccccc3c2OCc2ccc(OC(F)(F)F)cc2)C(=O)O)CCCCC1 (stereo not drawn) [Example 1, 2-(1-methylcyclohexyl)-2-[[1-[[4-(trifluoromethoxy)phenyl]methoxy]naphthalene-2-carbonyl]amino]acetic Acid]
19 | 0.5 | 137 | A (“A” refers to AUC @10 uM >6) | CC1([C@H](NC(=O)c2ccc3ccc(C(F)(F)F)cc3c2OCc2ccc(OC(F)(F)F)cc2)C(=O)O)CC1 [Example 297, (S)-2-(1-methylcyclopropyl)-2-(1-((4-(trifluoromethoxy)benzyl)oxy)-7-(trifluoromethyl)-2-naphthamido)acetic Acid]
